Experimental data as given in US9497970B2, “Pesticide compounds” (priority 2013, dated 2016).

Assays:
Assay type in all cases: in vivo
[1] = test system: Diamond Back Moth (Plutella xylostella); assay: B.1 Diamond Back Moth (Plutella xylostella), cabbage leaf dip; conditions: foliar, 500 ppm, 3rd instar larvae on dipped cabbage leaves, 72 hours after treatment, in comparison with untreated controls, read-out: mortality
Outline: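 Cabbage leaves dipped in compound in 1:1 water:acetone with 0.01% Kinetic HV surfactant, air-dried, then infested with ten 3rd-instar larvae on moist filter paper. Mortality scored at 72 h after treatment; feeding damage rated on a 0-100% scale.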

[2] = test system: Boll Weevil (Anthonomus grandis); assay: B.3 Boll Weevil (Anthonomus grandis), microtiter plate insect diet; conditions: 120 h, 800 ppm, sprayed onto insect diet, 5 days, in comparison with untreated controls, read-out: mortality (egg and larval)
Outline: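 Compounds in 25% DMSO/water sprayed at several concentrations onto insect diet in microtiter wells holding 5–10 A. grandis eggs, two replicates. Plates kept 5 days at about 25±1 °C and 75±5% RH. Egg and larval mortality scored visually.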

[3] = test system: Silverleaf Whitefly (Bemisia argentifoli); assay: B.5 Silverleaf Whitefly (Bemisia argentifoli), sprayed cotton plants; conditions: 72 h, whitefly adults on sprayed cotton plants, 3 days after treatment, in comparison with untreated controls
Procedure: B.5 Silverleaf Whitefly (Bemisia argentifoli)
(§1) The active compounds were formulated by a Tecan liquid handler in 100% cyclohexanone as a 10,000 ppm solution supplied in tubes. The 10,000 ppm solution was serially diluted in 100% cyclohexanone to make interim solutions. These served as stock solutions for which final dilutions were made by the Tecan in 50% acetone:50% water (v/v) into 5 or 10 ml glass vials. A nonionic surfactant (Kinetic®) was included in the solution at a volume of 0.01% (v/v). The vials were then inserted into an automated electrostatic sprayer equipped with an atomizing nozzle for application to plants/insects.
Cotton plants at the cotyledon stage (one plant per pot) were sprayed by an automated electrostatic plant sprayer equipped with an atomizing spray nozzle. The plants were dried in the sprayer fume hood and then removed from the sprayer. Each pot was placed into a plastic cup and about 10 to 12 whitefly adults (approximately 3-5 days old) were introduced. The insects were collected using an aspirator and a nontoxic Tygon® tubing connected to a barrier pipette tip. The tip, containing the collected insects, was then gently inserted into the soil containing the treated plant, allowing insects to crawl out of the tip to reach the foliage for feeding. Cups were covered with a reusable screened lid. Test plants were maintained in a growth room at about 25° C. and about 20-40% relative humidity for 3 days, avoiding direct exposure to fluorescent light (24 hour photoperiod) to prevent trapping of heat inside the cup. Mortality was assessed 3 days after treatment, compared to untreated control plants.

[4] = test system: Mediterranean Fruitfly (Ceratitis capitata); assay: B.6 Mediterranean Fruitfly (Ceratitis capitata), microtiter plate insect diet; conditions: 120 h, 800 ppm, sprayed onto insect diet, 5 days, in comparison with untreated controls, read-out: mortality (egg and larval)
Outline: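 Insect diet with 50-80 C. capitata eggs sprayed with compounds formulated in 75% water/25% DMSO, at different concentrations, two replications. Incubation at about 28±1° C and 80±5% relative humidity for 5 days, then egg and larval mortality assessed visually.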

[5] = test system: Tobacco Budworm (Heliothis virescens); assay: B.7 Tobacco Budworm (Heliothis virescens) I, microtiter plate insect diet; conditions: 120 h, 800 ppm, sprayed onto insect diet, 5 days, in comparison with untreated controls, read-out: mortality (egg and larval)
Outline: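 96-well plates with insect diet and 15-25 H. virescens eggs; compounds in 75% water/25% DMSO sprayed onto diet at several concentrations, two replicates. Plates held at about 28±1° C. and 80±5% relative humidity for 5 days, then egg and larval mortality scored visually.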

[6] = test system: Southern Armyworm (Spodoptera eridania), 2nd Instar Larvae; assay: B.10 Southern Armyworm (Spodoptera eridania), 2nd Instar Larvae, sprayed lima bean plants; conditions: 96 h, 300 ppm, larvae on sprayed lima bean plants, 4 days after treatment, in comparison with untreated controls, read-out: mortality
Procedure: B.10 Southern Armyworm (Spodoptera eridania), 2nd Instar Larvae
as §1
Lima bean plants (variety Sieva) were grown 2 plants to a pot and selected for treatment at the 1st true leaf stage. Test solutions were sprayed onto the foliage by an automated electrostatic plant sprayer equipped with an atomizing spray nozzle. The plants were dried in the sprayer fume hood and then removed from the sprayer. Each pot was placed into perforated plastic bags with a zip closure. About 10 to 11 armyworm larvae were placed into the bag and the bags zipped closed. Test plants were maintained in a growth room at about 25° C. and about 20-40% relative humidity for 4 days, avoiding direct exposure to fluorescent light (24 hour photoperiod) to prevent trapping of heat inside the bags. Mortality and reduced feeding were assessed 4 days after treatment, compared to untreated control plants.

[7] = test system: Yellow Fever Mosquito (Aedes aegypti); assay: whole plant or invertebrate; conditions: 48 h, freshly hatched larvae in tap water, 2 days, in comparison with untreated controls, read-out: mortality (larval)
Outline: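 Freshly hatched A. aegypti larvae, 5–15 per well, were held in 200 μl tap water. Compounds formulated in 75:25 water:DMSO were sprayed at various concentrations, 2.5 μl per well by micro-atomizer, in two replicates.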

[8] = test system: Orchid thrips (dichromothrips corbetti); assay: B.12 Orchid thrips (dichromothrips corbetti), floral-immersion technique; conditions: adult thrips on dipped orchid petals, 72 hours after treatment, in comparison with untreated controls
Outline: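 Whole orchid flower petals were dipped in compound in 1:1 acetone:water with 0.01% v/v Kinetic HV, dried, and enclosed with about 20 adult thrips. They were held under continuous light at about 28° C. Live thrips were counted and percent mortality recorded at 72 hours.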

[9] = test system: Green Peach Aphid (Myzus persicae); assay: B.9 Green Peach Aphid (Myzus persicae), sprayed bell pepper plants; conditions: 120 h, infested bell pepper plants sprayed, after 5 days, in comparison with untreated controls
Procedure: B.9 Green Peach Aphid (Myzus persicae)
The active compounds were formulated by a Tecan liquid handler in 100% cyclohexa none as a 10,000 ppm solution supplied in tubes. The 10,000 ppm solution was serially diluted in 100% cyclohexanone to make interim solutions. These served as stock solutions for which final dilutions were made by the Tecan in 50% acetone:50% water (v/v) into 5 or 10 ml glass vials. A nonionic surfactant (Kinetic®) was included in the solution at a volume of 0.01% (v/v). The vials were then inserted into an automated electrostatic sprayer equipped with an atomizing nozzle for application to plants/insects.
Bell pepper plants at the first true-leaf stage were infested prior to treatment by placing heavily infested leaves from the main colony on top of the treatment plants. Aphids were allowed to transfer overnight to accomplish an infestation of 30-50 aphids per plant and the host leaves were removed. The infested plants were then sprayed by an automated electrostatic plant sprayer equipped with an atomizing spray nozzle. The plants were dried in the sprayer fume hood, removed, and then maintained in a growth room under fluorescent lighting in a 24-hr photoperiod at about 25° C. and about 20-40% relative humidity. Aphid mortality on the treated plants, relative to mortality on untreated control plants, was determined after 5 days.

CC(C)c1ccccc1N1CCCSC1=NN=Cc1ccc2c(ccc3c2ncn3-c2ccc(OC(F)(F)F)cc2)c1 (stereo in doubt) [C-55, (Z)-3-(2-isopropylphenyl)-2-((E)-((3-(4-(trifluoromethoxy)phenyl)-3H-naphtho[1,2-d]imidazol-7-yl)methylene)hydrazono)-1,3-thiazinane]
≥ 75%: mortality at 500 ppm [1] | mortality at 800 ppm [2] | mortality at 300 ppm [3] | mortality at 800 ppm [4] | mortality at 800 ppm [5] | mortality at 300 ppm [6] | mortality at 800 ppm [7] | mortality at 500 ppm [8]

CC(C)c1ccccc1N1C(=O)CS/C1=N\N=C\c1ccc2c(ccc3c2ncn3-c2ccc(OC(F)(F)F)cc2)c1 [C-51]
≥ 75%: mortality at 500 ppm [1] | mortality at 800 ppm [2] | mortality at 300 ppm [3] | mortality at 800 ppm [4] | mortality at 800 ppm [5] | mortality at 800 ppm [9] | mortality at 300 ppm [6] | mortality at 800 ppm [7] | mortality at 500 ppm [8]

CS/C(=N\N=C\c1ccc2c(ccc3c2ncn3-c2ccc(OC(F)(F)F)cc2)c1)Nc1ccccc1C(C)C [C-52, (1Z,N′E)-methyl N-2-isopropylphenyl-N′-((3-(4-(trifluoromethoxy)phenyl)-3H-naphtho[1,2-d]imidazol-7-yl)methylene)carbamohydrazonothioate]
≥ 75%: mortality at 500 ppm [1] | mortality at 800 ppm [2] | mortality at 300 ppm [3] | mortality at 800 ppm [4] | mortality at 800 ppm [5] | mortality at 800 ppm [9] | mortality at 300 ppm [6] | mortality at 500 ppm [8]

CCc1cccc(CC)c1NC(=S)N/N=C/c1ccc2c(ccc3c2ncn3-c2ccc(OC(F)(F)F)cc2)c1 [C-70, 1-(2,6-diethylphenyl)-3-[(E)-[3-[4-(trifluoromethoxy)phenyl]benzo[e]benzimidazol-7-yl]methyleneamino] thiourea]
≥ 75%: mortality at 500 ppm [1] | mortality at 800 ppm [2] | mortality at 300 ppm [3] | mortality at 800 ppm [5] | mortality at 800 ppm [9] | mortality at 300 ppm [6] | mortality at 800 ppm [7] | mortality at 500 ppm [8]

Cc1cccc(Cl)c1NC(=S)N/N=C/c1ccc2c(ccc3c2ncn3-c2ccc(SC(F)(F)F)cc2)c1 [C-74, 1-(2-chloro-6-methyl-phenyl)-3-[(E)-[3-[4-(trifluoromethylsulfanyl)phenyl]benzo[e]benzimidazol-7-yl]methyleneamino]thiourea]
≥ 75%: mortality at 500 ppm [1] | mortality at 800 ppm [2] | mortality at 300 ppm [3] | mortality at 800 ppm [4] | mortality at 800 ppm [5] | mortality at 300 ppm [6] | mortality at 800 ppm [7]

Cc1cccc(C)c1NC(=S)N/N=C/c1ccc2c(ccc3c2ncn3-c2ccc(SC(F)(F)F)cc2)c1 [C-75, 1-(2,6-dimethylphenyl)-3-[(E)-[3-[4-(trifluoromethylsulfanyl)phenyl]benzo[e]benzimidazol-7-yl]methyleneamino] thiourea]
≥ 75%: mortality at 500 ppm [1] | mortality at 800 ppm [2] | mortality at 300 ppm [3] | mortality at 800 ppm [4] | mortality at 800 ppm [5] | mortality at 800 ppm [9] | mortality at 300 ppm [6] | mortality at 800 ppm [7] | mortality at 500 ppm [8]

CCc1cccc(C)c1NC(=S)N/N=C/c1ccc2c(ccc3c2ncn3-c2ccc(C(F)(F)F)cc2)c1 [C-78, 1-(2-ethyl-6-methyl-phenyl)-3-[(E)-[3-[4-(trifluoromethyl)phenyl]benzo[e]benzimidazol-7-yl]methyleneamino] thiourea]
≥ 75%: mortality at 500 ppm [1] | mortality at 800 ppm [2] | mortality at 300 ppm [3] | mortality at 800 ppm [4] | mortality at 800 ppm [5] | mortality at 300 ppm [6] | mortality at 500 ppm [8]

CSc1cccc(C)c1NC(=S)N/N=C/c1ccc2c(ccc3c2ncn3-c2ccc(OC(F)(F)F)cc2)c1 [C-103, 1-(2-methyl-6-methylsulfanyl-phenyl)-3-[(E)-[3-[4-(trifluoromethoxy)phenyl]benzo[e]benzimidazol-7-yl]methyleneamino]thiourea]
≥ 75%: mortality at 500 ppm [1] | mortality at 800 ppm [2] | mortality at 300 ppm [3] | mortality at 800 ppm [4] | mortality at 800 ppm [5] | mortality at 300 ppm [6] | mortality at 800 ppm [7] | mortality at 500 ppm [8]

Cc1cccc(C)c1NC(=S)N/N=C/c1ccc2c(ccc3c2ncn3-c2ccc(C(F)(F)F)cn2)c1 [C-109, 1-(2,6-dimethylphenyl)-3-[(E)-[3-[5-(trifluoromethyl)-2-pyridyl]benzo[e]benzimidazol-7-yl]methyleneamino] thiourea]
≥ 75%: mortality at 500 ppm [1] | mortality at 800 ppm [2] | mortality at 300 ppm [3] | mortality at 800 ppm [4] | mortality at 800 ppm [5] | mortality at 800 ppm [9] | mortality at 800 ppm [7]
